According to patent publication US20250237628A1, “CELL SELECTION AND/OR STIMULATION DEVICES AND METHODS OF USE” (Juno Therapeutics GmbH, priority 2019, published 2025):

Legend:
[1] = biological target: Strep-Tactin® (mutein streptavidin, e.g. SEQ ID NO: 4) (Streptomyces avidinii, UniProt P22629, E68V/S69T/V71R); settings: background statement, no experiment described; read-out: KD of binding to Strep-Tactin®; cited from earlier work
[2] = system: CD4+ and CD8+ T cells; assay: Viable cells in engineered T cell composition over the process; assay type: cell-based, human; settings: presence vs absence of compound 63 in the process
Method: (§1) CD4+ and CD8+ T cells were isolated by immunoaffinity-based enrichment from leukapheresis samples from human donor subjects. […] The T cells cultured with our without Compound 63 were incubated overnight (approximately 24 hr) at 37° C., and were then transduced in serum-free culture media with our without Compound 63 ([…]) with a lentiviral vector encoding an anti-CD19 CAR. […] Following transduction, the cells were incubated in serum free media without recombinant cytokines (basal media) and with or without Compound 63 (1 mM) and allowed to incubate at about 37.0° C. in an incubator for up to 96 hours after initiation of the stimulation with the anti-CD3/anti-CD28 oligomeric stimulatory reagent (until day 5 of the process). […] The cryofrozen engineered CD4+ and CD8+ T cells were thawed, and T cells were assessed for intracellular S6 phosphorylation, a ribosomal protein and marker of mTOR inhibition, and co-stained for surface expression of CD4 or CD8 and for CCR7 and CD45RA as markers of memory subsets. pS6 expression in live CD8+ T cells by memory subsets was shown by the expression of CCR7 and CD45RA as shown in FIG. 16A. As shown, incubation with Compound 63 decreased the mean fluorescence intensity of stimulated memory T cell subsets, […], indicating an inhibition of mTOR, while having no significant effect on the percentage or total number of viable cells over time.

[3] = system: mTOR; assay: Intracellular S6 phosphorylation (marker of mTOR inhibition) in engineered T cells; assay type: cell-based, human; settings: live CD8+ T cells, Temra, Tem subsets; cells produced with vs without Compound 63
Method: as §1

[4] = system: CD4+ and CD8+ T cells; assay: Intracellular cytokines following stimulation with PMA/Ionomycin and a Golgi inhibitor; assay type: cell-based, human; settings: engineered CD8+ and CD4+ T cells produced in presence of Compound 63
[5] = system: CD4+ and CD8+ T cells; assay: Surface expression of CD27 and CCR7 by flow cytometry (phenotypic subset profile); assay type: cell-based, human; settings: thawed
[6] = system: CAR-T cells; assay: Intracellular caspase expression (marker of apoptosis) in thawed CAR-T cells; assay type: cell-based, human; settings: incubated with vs without compound 63
[7] = system: anti-CD19 CAR T cells; assay: Long-term stimulation over 12 days with anti-idiotype antibody beads, expansion and survival; assay type: cell-based, human; settings: anti-ID beads, cells produced in presence vs absence of compound 63
Method: CD4+ and CD8+ T cells were isolated by immunoaffinity-based enrichment from leukapheresis samples from human donor subjects. At day 1, isolated CD4+ and CD8+ T cells were mixed 1:1 and stimulated with an anti-CD3/anti-CD28 oligomeric stimulatory reagent generated as described in Example 1 in serum-free media supplemented with recombinant IL-2 (100 IU/mL), recombinant IL-7 (600 IU/mL), and recombinant IL-15 (100 IU/mL) with or without 1 μM of 2-(3-hydroxyphenyl)-9-(2-isopropylphenyl)-8-oxo-8,9-dihydro-7H-purine-6-carboxamide (Compound 63). The T cells cultured with our without Compound 63 were incubated overnight (approximately 24 hr) at 37° C., and were then transduced in serum-free culture media with our without Compound 63 ([…]) with a lentiviral vector encoding an anti-CD19 CAR. The CAR contained an scFv antigen-binding domain specific for CD19 (derived from FMC63), a CD28 transmembrane region, a 4-1BB costimulatory signaling region, and a CD3-zeta derived intracellular signaling domain. […]
To further assess the functional activity of the cells, the generated T cell compositions were stimulated long-term over 12 days with beads conjugated with an anti-idiotype (ID) antibody against the anti-CD19 CAR, and expansion and survival of the cells were monitored (FIG. 17F, left panel) and total expansion metric calculated by area under the growth curve (FIG. 17F, right panel, AUC).

Strep-Tactin® (mutein streptavidin, e.g. SEQ ID NO: 4), sequence (P22629 other isoform, or with tags, fused parts or gaps E68V/S69T/V71R): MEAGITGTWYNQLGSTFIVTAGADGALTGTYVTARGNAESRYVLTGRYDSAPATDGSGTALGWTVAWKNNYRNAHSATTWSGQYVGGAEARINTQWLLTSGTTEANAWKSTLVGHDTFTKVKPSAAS

| Compound | Kd [1] [µM] | percent viable cells [2] | total live cells [2] | mean fluorescence intensity of pS6 in memory T cell subsets [3] | level of intracellular cytokines IL2, IFNg, or TNF [4] | phenotypic subset profile by CD27 and/or CCR7 expression [5] | intracellular caspase expression [6] | function (expansion) following long-term CAR-specific stimulation [7] |
| --- | --- | --- | --- | --- | --- | --- | --- | --- |
| WSHPQFEK [Strep-Tag® II] | ~1 | – | – | – | – | – | – | – |
| CC(C)c1ccccc1-n1c(=O)[nH]c2c(C(N)=O)nc(-c3cccc(O)c3)nc21 [Compound 63, 2-(3-hydroxyphenyl)-9-(2-isopropylphenyl)-8-oxo-8,9-dihydro-7H-purine-6-carboxamide] | – | did not impact | did not impact | decreased | substantially improved | did not substantially alter | less intracellular caspase expression | improved function |
